The results in this text go back to patent US20230406843A1, “Progranulin Modulators and Methods of Using the Same” (ARKUDA THERAPEUTICS, priority 2020, published 2023).

The structures appear in SMILES notation.

One assay has as its system progranulin. As to the kind of experiment: Progranulin induction cellular assay (ELISA of secreted mouse PGRN). The format is cell-based. The settings on record: Mus musculus, BV-2, read-out: EC50 μM. A digest of the protocol: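 Secreted mouse PGRN in culture medium is measured by ELISA. Cells tested are BV-2, primary cortical neurons and primary microglia. BV-2 cells are plated a day ahead, allowed 1 h to attach, then incubated 16 h.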
A general note: An ELISA detects its analyte on a solid surface through an enzyme-linked reagent.
Take `C#CCO[C@H]1CO[C@@H](C(=O)N2CCc3ccccc3[C@@H]2c2ccc(F)cc2)C[C@@H]1N` [Compound 5541, ((2R,4S,5R)-4-amino-5-(prop-2-yn-1-yloxy)tetrahydro-2H-pyran-2-yl)((S)-1-(4-fluorophenyl)-3,4-dihydroisoquinolin-2(1H)-yl)methanone]: the concentration giving a half-maximal response (EC50) (usually the concentration that produces a half-maximal response) amounted to 0.001 µM.

Staying with this assay, now noted: progranulin induction assay; mouse pMG, primary cortical neurons and BV-2 cell lines named, cell type not given; ELISA-based readout; read-out: EC50.
On to `N[C@@H]1CC[C@@H](C(=O)N2CCc3ccccc3[C@@H]2c2ccc(F)cc2)OC1` [Compound 5015, ((2S,5R)-5-aminotetrahydro-2H-pyran-2-yl)((S)-1-(4-fluorophenyl)-3,4-dihydroisoquinolin-2(1H)-yl)methanone], for which the concentration for a half-maximal effect (EC50) was 0.09 µM.

As to `N[C@H]1CC[C@H](C(=O)N2CCc3ccccc3[C@@H]2c2ccc(F)cc2)OC1` [Compound 5042, ((2R,5S)-5-aminotetrahydro-2H-pyran-2-yl)((S)-1-(4-fluorophenyl)-3,4-dihydroisoquinolin-2(1H)-yl)methanone], the concentration for a half-maximal effect (EC50) came out at 0.079 µM.

Turning to `CN1C(=O)CN[C@H]2C[C@H](C(=O)N3CCc4ccccc4[C@@H]3c3ccc(F)cc3)OC[C@@H]21` [Compound 5533, (4aR,7R,8aS)-7-((S)-1-(4-fluorophenyl)-1,2,3,4-tetrahydroisoquinoline-2-carbonyl)-4-methylhexahydro-2H-pyrano[3,4-b]pyrazin-3(4H)-one], the EC50 stood at 0.289 µM.

Regarding `CCN1C(=O)CN[C@H]2C[C@H](C(=O)N3CCc4ccccc4[C@@H]3c3ccc(F)cc3)OC[C@@H]21` [Compound 5536, (4aR,7R,8aS)-4-ethyl-7-((S)-1-(4-fluorophenyl)-1,2,3,4-tetrahydroisoquinoline-2-carbonyl)hexahydro-2H-pyrano[3,4-b]pyrazin-3(4H)-one], the EC50 came out at 0.15 µM.

Take `N[C@H]1C[C@H](C(=O)N2CCc3ccccc3[C@@H]2c2ccc(F)cc2)OC[C@@H]1CO` [Compound 5537, ((2R,4S,5S)-4-amino-5-(hydroxymethyl)tetrahydro-2H-pyran-2-yl)((S)-1-(4-fluorophenyl)-3,4-dihydroisoquinolin-2(1H)-yl)methanone]: the EC50 was determined as 0.029 µM.

`N[C@H]1C[C@H](C(=O)N2CCc3ccccc3[C@@H]2c2ccc(F)cc2)OC[C@H]1CO` [Compound 5538, ((2R,4S,5R)-4-amino-5-(hydroxymethyl)tetrahydro-2H-pyran-2-yl)((S)-1-(4-fluorophenyl)-3,4-dihydroisoquinolin-2(1H)-yl)methanone]: the concentration for a half-maximal effect (EC50) was 0.064 µM.

Take `N[C@H]1C[C@H](C(=O)N2CCc3ccccc3[C@@H]2c2ccc(F)cc2)OC[C@@H]1NCC(F)(F)F` [Compound 5539, ((2R,4S,5R)-4-amino-5-((2,2,2-trifluoroethyl)amino)tetrahydro-2H-pyran-2-yl)((S)-1-(4-fluorophenyl)-3,4-dihydroisoquinolin-2(1H)-yl)methanone]: the concentration giving a half-maximal response (EC50) came to 0.001 µM.

With `O=C([C@H]1C[C@@H]2NCCS(=O)(=O)[C@H]2CO1)N1CCc2ccccc2[C@@H]1c1ccc(F)cc1` [Compound 5542, ((4aR,7R,8aS)-4,4-dioxidooctahydropyrano[3,4-b][1,4]thiazin-7-yl)((S)-1-(4-fluorophenyl)-3,4-dihydroisoquinolin-2(1H)-yl)methanone], the concentration for a half-maximal effect (EC50) amounted to 4.39 µM.

Take `C#CCO[C@H]1COC(C(=O)N2CCc3ccccc3[C@@H]2c2ccc(F)cc2)C[C@@H]1NCCCOC` (stereo partly drawn) [Compound 5546]: the EC50 worked out at 0.03 µM.

In the case of `[NH-][S@@+2]1([O-])CCN[C@H]2C[C@H](C(=O)N3CCc4ccccc4[C@@H]3c3ccc(F)cc3)OC[C@@H]21` [Compound 5553, ((S)-1-(4-fluorophenyl)-3,4-dihydroisoquinolin-2(1H)-yl)((4R,4aR,7R,8aS)-4-imino-4-oxidooctahydro-2H-^4-pyrano[3,4-b][1,4]thiazin-7-yl)methanone], the half-maximal effective concentration (EC50) stood at 1.02 µM.

On to `CC[C@@H]1CN[C@H]2C[C@H](C(=O)N3CCc4ccccc4[C@@H]3c3ccc(F)cc3)OC[C@@H]2O1` [Compound 5564, ((3R,4aR,7R,8aS)-3-ethyloctahydropyrano[3,4-b][1,4]oxazin-7-yl)((S)-1-(4-fluorophenyl)-3,4-dihydroisoquinolin-2(1H)-yl)methanone], for which the concentration giving a half-maximal response (EC50) stood at 0.004 µM.

Take `CCC[C@@H]1CN[C@H]2C[C@H](C(=O)N3CCc4ccccc4[C@@H]3c3ccc(F)cc3)OC[C@@H]2O1` [Compound 5565]: the half-maximal effective concentration (EC50) is over 0.3 µM.

As to `COC[C@@H]1CN[C@H]2C[C@H](C(=O)N3CCc4ccccc4[C@@H]3c3ccc(F)cc3)OC[C@@H]2O1` [Compound 5566], the EC50 is over 0.3 µM.

Take `CC(C)[C@@H]1CN[C@H]2C[C@H](C(=O)N3CCc4ccccc4[C@@H]3c3ccc(F)cc3)OC[C@@H]2O1` [Compound 5567]: the EC50 worked out at 0.07 µM.

With `CO[C@H]1CO[C@@H](C(=O)N2CCc3ccccc3[C@@H]2c2ccc(F)cc2)C[C@@H]1NCCO` [Compound 5568], the EC50 turned out to be 0.025 µM.

Turning to `COCCN[C@H]1C[C@H](C(=O)N2CCc3ccccc3[C@@H]2c2ccc(F)cc2)OC[C@@H]1OC` [Compound 5569, ((S)-1-(4-fluorophenyl)-3,4-dihydroisoquinolin-2(1H)-yl)((2R,4S,5R)-5-methoxy-4-((2-methoxyethyl)amino)tetrahydro-2H-pyran-2-yl)methanone], the 50% effective concentration (EC50) is over 0.3 µM.

With `CO[C@H]1CO[C@@H](C(=O)N2CCc3ccccc3[C@@H]2c2ccc(F)cc2)C[C@@H]1NCCC(F)(F)F` [Compound 5570], the EC50 was found to be 0.232 µM.

In the case of `CO[C@H]1CO[C@@H](C(=O)N2CCc3ccccc3[C@@H]2c2ccc(F)cc2)C[C@@H]1N(C)C` [Compound 5575, ((2R,4S,5R)-4-(dimethylamino)-5-methoxytetrahydro-2H-pyran-2-yl)((S)-1-(4-fluorophenyl)-3,4-dihydroisoquinolin-2(1H)-yl)methanone], the EC50 came to 0.028 µM.

`CO[C@H]1CO[C@@H](C(=O)N2CCc3ccccc3[C@@H]2c2ccc(F)cc2)C[C@@H]1NCC(F)(F)F` [Compound 5577]: the concentration for a half-maximal effect (EC50) is over 0.3 µM.

As to `C=CCN[C@H]1C[C@H](C(=O)N2CCc3ccccc3[C@@H]2c2ccc(F)cc2)OC[C@@H]1OC` [Compound 5578], the EC50 was found to be 0.03 µM.

Consider `CCCN[C@H]1C[C@H](C(=O)N2CCc3ccccc3[C@@H]2c2ccc(F)cc2)OC[C@@H]1OC` [Compound 5579], for which the EC50 was determined as 0.05 µM.

Take `CN[C@H]1C[C@H](C(=O)N2CCc3ccccc3[C@@H]2c2ccc(F)cc2)OC[C@@H]1O` [Compound 5586]: the concentration for a half-maximal effect (EC50) is 0.219 µM.

Take `CCN[C@H]1C[C@H](C(=O)N2CCc3ccccc3[C@@H]2c2ccc(F)cc2)OC[C@@H]1O` [Compound 5587]: the EC50 came to 0.194 µM.

In the case of `CCN1CCN[C@H]2C[C@H](C(=O)N3CCc4ccccc4[C@@H]3c3ccc(F)cc3)OC[C@@H]21` [Compound 5599], the concentration for a half-maximal effect (EC50) came out at 0.001 µM.

As to `CCCN1CCN[C@H]2C[C@H](C(=O)N3CCc4ccccc4[C@@H]3c3ccc(F)cc3)OC[C@@H]21` [Compound 5600], the EC50 turned out to be 0.021 µM.

`COCCN1CCN[C@H]2C[C@H](C(=O)N3CCc4ccccc4[C@@H]3c3ccc(F)cc3)OC[C@@H]21` [Compound 5601]: the EC50 stood at 0.018 µM.

In the case of `CC(C)(C)N1CCN[C@H]2C[C@H](C(=O)N3CCc4ccccc4[C@@H]3c3ccc(F)cc3)OC[C@@H]21` [Compound 5603], the 50% effective concentration (EC50) stood at 0.008 µM.

A further assay relates to progranulin. As to the kind of experiment: In vivo progranulin secretion assay after oral administration. The conditions noted are these: oral administration at 5 mg/kg; progranulin secretion post dose relative to the control. The protocol:
In vivo Assays: Progranulin can be detected in tissue sample or biofluids including blood, plasma, brain, liver and cerebrospinal fluid (CSF) from different non-human animals including rat, mouse, dog, and cynomolgus monkeys. Progranulin concentration can be detected using one or more methods including an enzyme-linked immunosorbent assay (ELISA). Non-human animals including rat, mouse, dog, and cynomolgus monkeys are administered a compound as disclosed herein by one of several routes of administration including oral, subcutaneous, and intravenous routes of administration. Samples of tissue or biofluids are collected at specific times before and following compound administration. The amount of progranulin in a specific sample collected after compound administration is compared to the amount of progranulin detected in a sample of the same tissue or biofluid obtained prior to compound administration. […] Test compounds can be administered one or more times. When compounds are administered more than one time, the number of doses and the intervals between doses can be adjusted to any combination. For example, a test compound can be administered a single time, a test compound can be administered 8 times at intervals of 12 hours, and a test compound can be administered 4 times at intervals of 24 hours. The ability of a compound to increase progranulin can be quantified in several ways. […]
Turning to `N[C@@H]1CC[C@@H](C(=O)N2CCc3ccccc3[C@@H]2c2ccc(F)cc2)OC1` [Compound 5015, ((2S,5R)-5-aminotetrahydro-2H-pyran-2-yl)((S)-1-(4-fluorophenyl)-3,4-dihydroisoquinolin-2(1H)-yl)methanone], the “Activity Level” value is 7 (at least about 300% (Activity level 7)).

As for `N[C@H]1CC[C@H](C(=O)N2CCc3ccccc3[C@@H]2c2ccc(F)cc2)OC1` [Compound 5042, ((2R,5S)-5-aminotetrahydro-2H-pyran-2-yl)((S)-1-(4-fluorophenyl)-3,4-dihydroisoquinolin-2(1H)-yl)methanone], the “Activity Level” value was 6 (at least about 250% (Activity level 6)).
